One series relates to blood glucose. In words: Effects of absorption enhancers plus insulin on blood glucose concentrations. The format is in vivo, New Zealand white rabbits. Conditions: for % Change in Blood Glucose Concentration / Blood Glucose Concentration After / Blood Glucose Concentration Before: eye drops 1% insulin plus 1% absorption enhancer (Control: 1% insulin only).
Series [1] in a line: Blood enkephalin-equivalent concentration after ocular instillation or i.v. injection. Conditions: enkephalin 50 ug i.v.
A short description of series [2]: Amount of enkephalin-equivalent remaining in eye tissues at the end of 12 hr experiment.
Series [3] is described as follows: Blood concentration of TRH, LHRH and glucagon after ocular instillation or i.v. injection (Example 5). The text has this: The concentrations of peptides in the blood were expressed in ng/ml.
A short description of series [4]: Effects of absorption enhancers on insulin penetration (blood insulin concentration).
Series [5] can be described thus: Effects of absorption enhancers on the penetration of insulin into eyeballs. The class given is in vivo, New Zealand white rabbits. Conditions: 1% insulin plus enhancer.
Setting [6] is: 1% enhancer with 1% insulin eye drops.

Several values for one entry are separate records, joined by “and”; a condition that tells them apart may be missing. Equal values may be shown once.

As to `CC(=O)O[C@H]1C[C@@]2(C)[C@@H](C[C@@H](O)[C@H]3[C@@]4(C)CC[C@@H](O)[C@@H](C)[C@@H]4CC[C@@]32C)/C1=C(\CCC=C(C)C)C(=O)O` [Fusidic acid, sodium fusidate], in the series with blood glucose, the “% Change in Blood Glucose Concentration” value amounted to 43%; the “Blood Glucose Concentration After” value is 51 mg % and 51 ± 2 mg %; the “Blood Glucose Concentration Before” value is 90 mg % and 90 ± 3 mg %.

Turning to `CC(C)C[C@H](NC(=O)[C@H](Cc1ccccc1)NC(=O)CNC(=O)CNC(=O)[C@@H](N)Cc1ccc(O)cc1)C(=O)O` [enkephalin, Leucine-enkephalin (5-L-leucine)], the “Tx of blood concentration decline” value in series [1] is “less than 30 min”. Further, the “lowest point of blood concentration” value in series [1] (in 5 hrs) stood at 22 ng/mL. The “Residual enkephalin remaining in tissues: % of instilled” value turned out to be 0.0110 ± 0.008% in series [2] (Choroid, 5% enkephalin); 0.0156 ± 0.003% in series [2] (Ciliary-Body, 0.1245% enkephalin); 0.0108 ± 0.005% in series [2] (Ciliary-Body, 1% enkephalin); 0.0042 ± 0.002% in series [2] (Ciliary-Body, 5% enkephalin); 0.0601 ± 0.015% in series [2] (Cornea, 1% enkephalin); 0.0427 ± 0.012% in series [2] (Cornea, 5% enkephalin). Moreover, the “Residual enkephalin remaining in tissues: % of instilled” value in series [2] (Iris, 0.1245% enkephalin) was determined as 0.0252 ± 0.003%; in series [2] (Iris, 1% enkephalin) it was 0.0117 ± 0.005%; in series [2] (Lens, 0.1245% enkephalin), 0.0834 ± 0.013%; in series [2] (Retina, 0.1245% enkephalin), 0.0118 ± 0.004%; in series [2] (Retina, 5% enkephalin) it was 0.0036 ± 0.002%; in series [2] (Total, 0.1245% enkephalin), 0.3019%. Besides, the “Residual enkephalin remaining in tissues: % of instilled” value worked out at 0.1713% in series [2] (Total, 1% enkephalin) and 0.1136% in series [2] (Total, 5% enkephalin).

Turning to `O=C(O)CNC(=O)C(CS)Cc1ccccc1` (racemic) [D,L-Thiorphan, D,L-thiorphan], the “effect of added peptidase inhibitors on systemic absorption of TRH” value in series [3] (Leu-Leu 4 mM, Bestatin 60 uM, D,L-Thiorphan 0.6 uM) is on record as “did not significantly enhance the systemic absorption of TRH”.

As for `C[N+](C)(C)CCCCCCCCCC[N+](C)(C)C` [Decamethonium, decamethonium bromide], in the series with blood glucose, the “% Change in Blood Glucose Concentration” value amounted to 8%, the “Blood Glucose Concentration After” value was 83 ± 2 mg % and the “Blood Glucose Concentration Before” value is given as 90 ± 3 mg %.

“polyoxyethylene sorbitan monolaurate [Tween 20]”: the “effect on insulin absorption” value in series [4] (setting [6]) is on record as “only a slight increase in insulin absorption”. In series [4] (eye drops 1% insulin plus 1% absorption enhancer (Control: 1% insulin only), 25 ul), the “Insulin peak Concentration” value was determined as 8.8 ± 0.9 ng/mL. In series [5], the “% of insulin taken up by the eyeball” value turned out to be 0.0771% and the “Absolute amount of insulin in the eyeball” value (from here on “Absolute amount of insulin”) is 192 ng. Moreover, the “effect on blood glucose” value with blood glucose (setting [6]) is “a minute reduction in blood glucose concentration”. Besides, in the series on blood glucose, the “% Change in Blood Glucose Concentration” value stood at 14%, the “Blood Glucose Concentration After” value was determined as 77 ± 9 mg % and the “Blood Glucose Concentration Before” value came to 90 ± 3 mg %.

As for `NC(=O)[C@@H]1CCCN1C(=O)[C@H](Cc1cnc[nH]1)NC(=O)[C@@H]1CCC(=O)N1` [TRH, Thyrotrophin-releasing hormone], the “plateau blood TRH concentration” value in series [3] (female, New Zealand white, rabbit, in vivo, topical or ocular, 1 % solution (25 ul)) was found to be 26 ng/mL. Also, in series [3] (rabbit, in vivo), the “eye-drop concentration giving a therapeutic blood concentration of TRH” value is given as at least 0.0025%, the “time remained at the plateau” value is “approximately 10 hrs” and the time to peak came out at 60 min.

Consider `CC(C)C[C@H](NC(=O)CNC(=O)[C@H](Cc1ccc(O)cc1)NC(=O)[C@H](CO)NC(=O)[C@H](Cc1c[nH]c2ccccc12)NC(=O)[C@H](Cc1cnc[nH]1)NC(=O)[C@@H]1CCC(=O)N1)C(=O)N[C@@H](CCCNC(=N)N)C(=O)N1CCC[C@H]1C(=O)NCC(N)=O` [LHRH, luteinizing hormone-releasing hormone], for which, in series [3] (rabbit, in vivo), the “eye-drop concentration sufficient to reach therapeutic effective blood concentration” value turned out to be 0.005%.

As to `C[C@H](CCC(=O)NCC(=O)O)[C@H]1CC[C@H]2[C@@H]3[C@H](O)C[C@@H]4C[C@H](O)CC[C@]4(C)[C@H]3C[C@H](O)[C@]12C` [Glycocholate, sodium glycocholate], in series [5], the “% of insulin taken up by the eyeball” value is reported as 0.0804% and the “Absolute amount of insulin” value is 200 ng. Further, in the series on blood glucose, the “% Change in Blood Glucose Concentration” value came out at 13%; the “Blood Glucose Concentration After” value was 94 mg % and 94 ± 4 mg %; the “Blood Glucose Concentration Before” value is 108 mg % and 108 ± 7 mg %.

In the case of polyoxyethylene-9-lauryl ether [BL-9], in series [5], the “% of insulin taken up by the eyeball” value is recorded as 0.5221% and the “Absolute amount of insulin” value amounted to 1305 ng. Moreover, in the series on blood glucose, the “% Change in Blood Glucose Concentration” value is given as 42%; the “Blood Glucose Concentration After” value was 56 mg % and 56 ± 3 mg %; the “Blood Glucose Concentration Before” value was 97 mg % and 97 ± 2 mg %.

The values are drawn from patent publication US5278142A, “Systemic delivery of polypeptides through the eye” (Orbon Corporation, priority 1992, dated 1994).
